Structures are written as SMILES. pIC50: −log10 of the molar value.

In the assay the target is Acetylcholinesterase (Electrophorus electricus, UniProt O42275).
Acetylcholinesterase, sequence (O42275 whole entry): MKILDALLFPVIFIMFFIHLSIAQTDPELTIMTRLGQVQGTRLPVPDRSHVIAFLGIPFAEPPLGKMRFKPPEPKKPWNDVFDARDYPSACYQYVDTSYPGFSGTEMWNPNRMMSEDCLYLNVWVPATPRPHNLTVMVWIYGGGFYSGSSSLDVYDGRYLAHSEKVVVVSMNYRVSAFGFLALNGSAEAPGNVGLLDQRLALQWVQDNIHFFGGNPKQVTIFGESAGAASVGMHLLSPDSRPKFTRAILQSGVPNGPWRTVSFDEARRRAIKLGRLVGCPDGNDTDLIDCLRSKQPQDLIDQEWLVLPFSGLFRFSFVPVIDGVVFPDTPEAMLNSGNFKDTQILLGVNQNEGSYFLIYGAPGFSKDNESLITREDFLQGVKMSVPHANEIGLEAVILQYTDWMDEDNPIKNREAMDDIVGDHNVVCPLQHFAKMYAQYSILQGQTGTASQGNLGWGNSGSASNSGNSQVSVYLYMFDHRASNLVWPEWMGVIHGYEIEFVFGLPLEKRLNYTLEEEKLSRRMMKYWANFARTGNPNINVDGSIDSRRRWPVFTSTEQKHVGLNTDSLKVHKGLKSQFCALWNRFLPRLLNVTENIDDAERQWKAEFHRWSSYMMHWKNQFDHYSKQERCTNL
Description: Inhibition of Electric eel AChE assessed as amount of thiocholine released using acetylthiocholine iodide as substrate after 6 mins by Ellman's method
`CN(C)CCc1c(C(c2c[nH]c3ccccc23)C(O)CO)[nH]c2ccc(O)cc12` (stereo not given) had a pIC50 of 4.93.
With `NCCc1c(C(c2c[nH]c3ccccc23)C(O)CO)[nH]c2ccc(O)cc12` (stereo not given) the figure was 4.90; with `CNCCc1c[nH]c2ccc(OC)cc12`, 4.90; with `CN(C)CCc1c[nH]c2ccc(O)cc12` [BUFOTENINE], 4.94.
With `COc1ccc2[nH]cc(CCN(C)C)c2c1` [MEBUFOTENIN] the figure was 4.85.

For orientation: pIC50 means −log10 of the IC50, conventionally taken in molar units.

The values above are taken from ChEMBL document CHEMBL3124840, “Chemical composition of the bark of Tetrapterys mucronata and identification of acetylcholinesterase inhibitory constituents” (J Nat Prod, 2014).
